From patent US11390604B2 (Hoffmann-La Roche Inc., priority 2019, dated 2022)
Structures can show the parent of a compound that is named as a salt.

Each compound was assayed on Acinetobacter baumannii ATCC 17961 (assay: Antimicrobial susceptibility testing: 90% growth inhibitory concentration (IC90) determination). Details: ATCC17961, Acinetobacter baumannii ATCC 17961, Iso-Sensitest broth, read-out: ATCC 17961 IC90.
Type: cell-based
In short: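 Broth microdilution in Iso-Sensitest medium, twofold series (e.g. 50 to 0.097 μM final), ~5×10^5 CFU/ml inoculum, 35±2 °C. OD600 read every 20 min over 16 h. IC90 derived from growth inhibition during logarithmic phase.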

SMILES	IC90
Cn1c(-c2cn(CCC(N)=O)nc2C(F)(F)F)cnc1C(=O)Nc1ccc(C(=O)N2CCN(C(=O)C3CCNCC3)CC2)c(Cl)c1 [Example 4, 5-(1-(3-amino-3-oxopropyl)-3-(trifluoromethyl)-1H-pyrazol-4-yl)-N-(3-chloro-4-(4-(piperidine-4-carbonyl)piperazine-1-carbonyl)phenyl)-1-methyl-1H-imidazole-2-carboxamide]	4060 nM
Cn1c(-c2cn(CCC#N)nc2C(F)(F)F)cnc1C(=O)Nc1ccc(C(=O)N2CCN(C(=O)C3CCNCC3)CC2)c(Cl)c1 [Example 5, N-(3-chloro-4-(4-(piperidine-4-carbonyl)piperazine-1-carbonyl)phenyl)-5-(1-(2-cyanoethyl)-3-(trifluoromethyl)-1H-pyrazol-4-yl)-1-methyl-1H-imidazole-2-carboxamide]	1040 nM
Cn1c(-c2cn(CC#CCO)nc2C(F)(F)F)cnc1C(=O)Nc1ccc(C(=O)N2CCN(C(=O)C3CCNCC3)CC2)c(Cl)c1 [Example 6, N-(3-chloro-4-(4-(piperidine-4-carbonyl)piperazine-1-carbonyl)phenyl)-5-(1-(4-hydroxybut-2-yn-1-yl)-3-(trifluoromethyl)-1H-pyrazol-4-yl)-1-methyl-1H-imidazole-2-carboxamide hydrochloride]	676 nM
C=CCn1cc(-c2cnc(C(=O)Nc3ccc(C(=O)N4CCN(C(=O)C5CCNCC5)CC4)c(Cl)c3)n2C)c(C(F)(F)F)n1 [Example 7, 5-(1-allyl-3-(trifluoromethyl)-1H-pyrazol-4-yl)-N-(3-chloro-4-(4-(piperidine-4-carbonyl)piperazine-1-carbonyl)phenyl)-1-methyl-1H-imidazole-2-carboxamide hydrochloride]	358 nM
CC#CCn1cc(-c2cnc(C(=O)Nc3ccc(C(=O)N4CCN(C(=O)C5CCNCC5)CC4)c(Cl)c3)n2C)c(C(F)(F)F)n1 [Example 8, 5-(1-(but-2-yn-1-yl)-3-(trifluoromethyl)-1H-pyrazol-4-yl)-N-(3-chloro-4-(4-(piperidine-4-carbonyl)piperazine-1-carbonyl)phenyl)-1-methyl-1H-imidazole-2-carboxamide hydrochloride]	327 nM
C#CC(C)n1cc(-c2cnc(C(=O)Nc3ccc(C(=O)N4CCN(C(=O)C5CCNCC5)CC4)c(Cl)c3)n2C)c(C(F)(F)F)n1 (stereo not shown) [Example 9, 5-(1-(but-3-yn-2-yl)-3-(trifluoromethyl)-1H-pyrazol-4-yl)-N-(3-chloro-4-(4-(piperidine-4-carbonyl)piperazine-1-carbonyl)phenyl)-1-methyl-1H-imidazole-2-carboxamide hydrochloride]	320 nM
Cn1c(-c2cn(C3CCC3)nc2C(F)(F)F)cnc1C(=O)Nc1ccc(C(=O)N2CCN(C(=O)C3CCNCC3)CC2)c(Cl)c1 [Example 10, N-(3-chloro-4-(4-(piperidine-4-carbonyl)piperazine-1-carbonyl)phenyl)-5-(1-cyclobutyl-3-(trifluoromethyl)-1H-pyrazol-4-yl)-1-methyl-1H-imidazole-2-carboxamide hydrochloride]	339 nM
Cn1c(-c2cn(CCF)nc2C(F)(F)F)cnc1C(=O)Nc1ccc(C(=O)N2CCN(C(=O)C3CCNCC3)CC2)c(Cl)c1 [Example 11, N-(3-chloro-4-(4-(piperidine-4-carbonyl)piperazine-1-carbonyl)phenyl)-5-(1-(2-fluoroethyl)-3-(trifluoromethyl)-1H-pyrazol-4-yl)-1-methyl-1H-imidazole-2-carboxamide hydrochloride]	466 nM
Cn1c(-c2cn(CC(F)F)nc2C(F)(F)F)cnc1C(=O)Nc1ccc(C(=O)N2CCN(C(=O)C3CCNCC3)CC2)c(Cl)c1 [Example 12, N-(3-chloro-4-(4-(piperidine-4-carbonyl)piperazine-1-carbonyl)phenyl)-5-(1-(2,2-difluoroethyl)-3-(trifluoromethyl)-1H-pyrazol-4-yl)-1-methyl-1H-imidazole-2-carboxamide hydrochloride]	700 nM
C#CCn1cc(-c2cnc(C(=O)Nc3ccc(C(=O)N4CCN(C(=O)C5CCN(C)CC5)CC4)c(Cl)c3)n2C)c(C(F)(F)F)n1 [Example 13, N-(3-chloro-4-(4-(1-methylpiperidine-4-carbonyl)piperazine-1-carbonyl)phenyl)-1-methyl-5-(1-(prop-2-yn-1-yl)-3-(trifluoromethyl)-1H-pyrazol-4-yl)-1H-imidazole-2-carboxamide]	335 nM
CN1CCC(C(=O)N2CCN(C(=O)c3ccc(NC(=O)c4ncc(-c5c[nH]nc5C(F)(F)F)n4C)cc3Cl)CC2)CC1 [Example 14, N-[3-chloro-4-[4-(1-methylpiperidine-4-carbonyl)piperazine-1-carbonyl]phenyl]-1-methyl-5-[3-(trifluoromethyl)-1H-pyrazol-4-yl]imidazole-2-carboxamide]	516 nM
CN1CCC(C(=O)N2CCN(C(=O)c3ccc(NC(=O)c4ncc(-c5cn(CC#N)nc5C(F)(F)F)n4C)cc3Cl)CC2)CC1 [Example 15, N-(3-chloro-4-(4-(1-methylpiperidine-4-carbonyl)piperazine-1-carbonyl)phenyl)-5-(1-(cyanomethyl)-3-(trifluoromethyl)-1H-pyrazol-4-yl)-1-methyl-1H-imidazole-2-carboxamide]	558 nM
Cn1c(-c2cn(C3CS(=O)(=O)C3)nc2C(F)(F)F)cnc1C(=O)Nc1ccc(C(=O)N2CCN(C(=O)C3CCNCC3)CC2)c(Cl)c1 [Example 16, N-(3-chloro-4-(4-(piperidine-4-carbonyl)piperazine-1-carbonyl)phenyl)-5-(1-(1,1-dioxidothietan-3-yl)-3-(trifluoromethyl)-1H-pyrazol-4-yl)-1-methyl-1H-imidazole-2-carboxamide]	1360 nM
Cn1c(-c2cn(CC#CCN)nc2C(F)(F)F)cnc1C(=O)Nc1ccc(C(=O)N2CCN(C(=O)C3CCNCC3)CC2)c(Cl)c1 [Example 17, 5-(1-(4-aminobut-2-yn-1-yl)-3-(trifluoromethyl)-1H-pyrazol-4-yl)-N-(3-chloro-4-(4-(piperidine-4-carbonyl)piperazine-1-carbonyl)phenyl)-1-methyl-1H-imidazole-2-carboxamide dihydrochloride]	607 nM
COCC#CCn1cc(-c2cnc(C(=O)Nc3ccc(C(=O)N4CCN(C(=O)C5CCNCC5)CC4)c(Cl)c3)n2C)c(C(F)(F)F)n1 [Example 18, N-(3-chloro-4-(4-(piperidine-4-carbonyl)piperazine-1-carbonyl)phenyl)-5-(1-(4-methoxybut-2-yn-1-yl)-3-(trifluoromethyl)-1H-pyrazol-4-yl)-1-methyl-1H-imidazole-2-carboxamide hydrochloride]	419 nM
CCC#CCn1cc(-c2cnc(C(=O)Nc3ccc(C(=O)N4CCN(C(=O)C5CCNCC5)CC4)c(Cl)c3)n2C)c(C(F)(F)F)n1 [Example 19, N-(3-chloro-4-(4-(piperidine-4-carbonyl)piperazine-1-carbonyl)phenyl)-1-methyl-5-(1-(pent-2-yn-1-yl)-3-(trifluoromethyl)-1H-pyrazol-4-yl)-1H-imidazole-2-carboxamide hydrochloride]	172 nM
Cn1c(-c2cn(CC(N)=O)nc2C(F)(F)F)cnc1C(=O)Nc1ccc(C(=O)N2CCN(C(=O)C3CCNCC3)CC2)c(Cl)c1 [Example 20, 5-(1-(2-amino-2-oxoethyl)-3-(trifluoromethyl)-1H-pyrazol-4-yl)-N-(3-chloro-4-(4-(piperidine-4-carbonyl)piperazine-1-carbonyl)phenyl)-1-methyl-1H-imidazole-2-carboxamide formate]	1660 nM
CN(C)C(=O)Cn1cc(-c2cnc(C(=O)Nc3ccc(C(=O)N4CCN(C(=O)C5CCNCC5)CC4)c(Cl)c3)n2C)c(C(F)(F)F)n1 [Example 21, N-(3-chloro-4-(4-(piperidine-4-carbonyl)piperazine-1-carbonyl)phenyl)-5-(1-(2-(dimethylamino)-2-oxoethyl)-3-(trifluoromethyl)-1H-pyrazol-4-yl)-1-methyl-1H-imidazole-2-carboxamide formate]	1870 nM
CC(C(N)=O)n1cc(-c2cnc(C(=O)Nc3ccc(C(=O)N4CCN(C(=O)C5CCNCC5)CC4)c(Cl)c3)n2C)c(C(F)(F)F)n1 (stereo not shown) [Example 22, 5-(1-(1-amino-1-oxopropan-2-yl)-3-(trifluoromethyl)-1H-pyrazol-4-yl)-N-(3-chloro-4-(4-(piperidine-4-carbonyl)piperazine-1-carbonyl)phenyl)-1-methyl-1H-imidazole-2-carboxamide formate]	1290 nM
Cn1c(-c2cn(CCn3cccn3)nc2C(F)(F)F)cnc1C(=O)Nc1ccc(C(=O)N2CCN(C(=O)C3CCNCC3)CC2)c(Cl)c1 [Example 23, 5-(1-(2-(1H-pyrazol-1-yl)ethyl)-3-(trifluoromethyl)-1H-pyrazol-4-yl)-N-(3-chloro-4-(4-(piperidine-4-carbonyl)piperazine-1-carbonyl)phenyl)-1-methyl-1H-imidazole-2-carboxamide formate]	1420 nM
CC(C)NC(=O)Cn1cc(-c2cnc(C(=O)Nc3ccc(C(=O)N4CCN(C(=O)C5CCNCC5)CC4)c(Cl)c3)n2C)c(C(F)(F)F)n1 [Example 24, N-(3-chloro-4-(4-(piperidine-4-carbonyl)piperazine-1-carbonyl)phenyl)-5-(1-(2-(isopropylamino)-2-oxoethyl)-3-(trifluoromethyl)-1H-pyrazol-4-yl)-1-methyl-1H-imidazole-2-carboxamide formate]	981 nM
COCCOCCn1cc(-c2cnc(C(=O)Nc3ccc(C(=O)N4CCN(C(=O)C5CCNCC5)CC4)c(Cl)c3)n2C)c(C(F)(F)F)n1 [Example 25, N-(3-chloro-4-(4-(piperidine-4-carbonyl)piperazine-1-carbonyl)phenyl)-5-(1-(2-(2-methoxyethoxy)ethyl)-3-(trifluoromethyl)-1H-pyrazol-4-yl)-1-methyl-1H-imidazole-2-carboxamide]	2010 nM
